Source: US20250290117A1, “MOLECULAR PHENOTYPIC ANTIMICROBIAL SUSCEPTIBILITY TESTING” (priority 2024, published 2025)

What was measured:
[1] = system: Escherichia coli; assay: Traditional culture-based antimicrobial susceptibility test; assay type: cell-based
Description: Table 3 illustrates the results of an example antimicrobial agent susceptibility test of the current application versus a traditional culture-based antimicrobial agent susceptibility test for multiple Escherichia coli isolates, in accordance with one or more embodiments of the disclosure. These specimens underwent extraction or DNA purification prior to PCR. As in Tables 1 and 2, the results of the test of the current application are similar to the results from the traditional test. […]
Table 8 illustrates the results of an example antimicrobial agent susceptibility test of the current application versus a traditional culture-based antimicrobial agent susceptibility test for a low level positive with <10,000 cells/mL in the original specimen. These specimens were tested with direct PCR (e.g., no extraction DNA purification step prior to PCR) after 16 hours of incubation. As in Tables 1, 2, 3, 5, and 7, the results of the test are similar to the traditional test. […]

[2] = system: pathogens of clinical samples; assay: Molecular phenotypic antimicrobial susceptibility test of clinical samples, extraction DNA purification step prior to PCR (Table 6); assay type: cell-based
Description: Detection of Molecular Phenotypic Antimicrobial Susceptibility. Disclosed herein are the methods for the detection of phenotypic antimicrobial susceptibility via molecular methods. The present invention describes how a specimen 100 with a known microbial load is incubated and then exposed to a panel of antimicrobial agents to determine sensitivity (prevention of growth) or resistance (allowance of growth) to the specific antimicrobial agents tested utilizing molecular methods.
Sample Collection. Specimens 100 are collected from patients using sterile collection processes that are employed in routine clinical care. Specimens are transported to the testing facility in boric acid preservative.
Preparation of the Specimens for Testing. […] The process for pathogen isolation includes steps of harvesting the pathogen (e.g., via centrifugation), isolating pathogen DNA via a DNA isolation and/or purification kit, and performing PCR on the pathogen DNA via PCR components (e.g., primers, enzymes, buffers) as would be known to the skilled artisan. […] This aliquot is used for antimicrobial susceptibility testing if indicated based on the pathogen detection results. […] Specimens 100 with lower pathogen loads could also be utilized in the antibiotic susceptibility phase of testing with or without a longer incubation period.
Preparation of Antimicrobial Susceptibility Testing Plates. Antimicrobial solutions are prepared at known concentrations. The specific antimicrobials and their concentrations are selected based on the pathogen of interest and the described antimicrobial resistance breakpoints for that specimen pathogen and antimicrobial combination. These antimicrobials have been selected based on those commonly utilized by healthcare providers in routine clinical care for the specific type of suspected infection. The number and types of antimicrobials utilized can be customized based on the infection source, pathogen detected, patient-specific factors such as allergies or other health conditions (e.g., chronic kidney disease or concurrent medication use), or healthcare provider preferences such as antimicrobial availability or cost.
The antimicrobial solutions are prepared in liquid culture media (such as Muller Hinton Broth) to achieve the desired antimicrobial concentration and are then stored at −80° C. until use. For a given specimen, each antimicrobial is tested at a single or multiple antimicrobial concentration(s) which is its established breakpoints for sensitivity. The antimicrobial solutions are prepared and plated out for each specific pathogen. […] This allows for evaluation of pathogen load when no antimicrobial is present.
Specimen Exposure to Antimicrobial Agents. The 1 mL aliquot of the specimen 100 previously mixed with culture media and incubated is obtained. Using optical density measurements as a guide, the specimen 100 is diluted to 0.5 McFarland.
Antimicrobial exposure plates are typically placed into an incubator for 12-16 hours.
Nucleic Acid Amplification of Antimicrobial Agent Exposed Pathogens. The antimicrobial exposure plate is removed after the period of incubation. The specimen then undergoes a purification or lysis step. For example, the specimen may undergo a purification step (e.g., magnetic bead-based or other separation protocol to isolate genetic material). In another example, the specimen may undergo a cell lysis step. For example, buffer (e.g., lysis buffer) may be added and incubated in the thermal cycler for preparation for direct PCR. Next, the specimen may undergo a polymerase chain reaction (PCR) testing protocol, whereby a semi-quantitative PCR method is utilized. This may be completed either with or without a specific extraction protocol step. The pathogens can be individually targeted and detected, or a universal genetic sequence can be utilized to detect the antimicrobial susceptibility of the specimen as a whole.

[3] = E. coli, clinical sample of r10-r24
[4] = E. coli, clinical sample of r10-r24, Ct Control Avg 18.112
[5] = E. coli, clinical sample of r158-r172
[6] = E. coli, clinical sample of r158-r172, Ct Control Avg 20.146
[7] = K. aerogenes, clinical sample of r136-r150
[8] = K. aerogenes, clinical sample of r136-r150, Ct Control Avg 19.994
[9] = K. pneumoniae, clinical sample of r121-r135
[10] = K. pneumoniae, clinical sample of r121-r135, Ct Control Avg 24.272
[11] = M. morganii, clinical sample of r55-r69
[12] = M. morganii, clinical sample of r55-r69, Ct Control Avg 28.86
[13] = M. morganii, clinical sample of r70-r84
[14] = M. morganii, clinical sample of r70-r84, Ct Control Avg 27.053
[15] = P. mirabilis, clinical sample of r25-r39
[16] = P. mirabilis, clinical sample of r25-r39, Ct Control Avg 26.064
[17] = P. mirabilis, clinical sample of r40-r54
[18] = P. mirabilis, clinical sample of r40-r54, Ct Control Avg 26.987

## CO[C@@]1(NC(=O)Cc2cccs2)C(=O)N2C(C(=O)O)=C(COC(N)=O)CS[C@@H]21 [Cefoxitin]
[1]; E. coli isolate 4 (Table 3)
  Traditional Culture Result: Sensitive
[1]; E. coli isolate 5 (Table 3)
  Traditional Culture Result: Sensitive
[2]; [3]
  Molecular Antibiotic Susceptibility Result: Sensitive (Antimicrobial wells with pathogen load detected below the control wells (typically >2 cycle thresholds later) may be reported as Sensitive)
[2]; [4]
  Ct: 26.364
[2]; [5]
  Molecular Antibiotic Susceptibility Result: Sensitive (Antimicrobial wells with pathogen load detected below the control wells (typically >2 cycle thresholds later) may be reported as Sensitive)
[2]; [6]
  Ct: 31.631
[2]; [7]
  Molecular Antibiotic Susceptibility Result: Resistant
[2]; [8]
  Ct: 20.635
[2]; [9]
  Molecular Antibiotic Susceptibility Result: Sensitive (Antimicrobial wells with pathogen load detected below the control wells (typically >2 cycle thresholds later) may be reported as Sensitive)
[2]; [10]
  Ct: 32.55
[2]; [11]
  Molecular Antibiotic Susceptibility Result: Sensitive (Antimicrobial wells with pathogen load detected below the control wells (typically >2 cycle thresholds later) may be reported as Sensitive)
[2]; [12]
  Ct: 37.168
[2]; [13]
  Molecular Antibiotic Susceptibility Result: Sensitive (Antimicrobial wells with pathogen load detected below the control wells (typically >2 cycle thresholds later) may be reported as Sensitive)
[2]; [14]
  Ct: 35.243
[2]; [15]
  Molecular Antibiotic Susceptibility Result: Sensitive (Antimicrobial wells with pathogen load detected below the control wells (typically >2 cycle thresholds later) may be reported as Sensitive)
[2]; [16]
  Ct: 29.443
[2]; [17]
  Molecular Antibiotic Susceptibility Result: Sensitive (Antimicrobial wells with pathogen load detected below the control wells (typically >2 cycle thresholds later) may be reported as Sensitive)
[2]; [18]
  Ct: 30.603
[2]; S. aureus, clinical sample of r85-r92
  Molecular Antibiotic Susceptibility Result: Resistant
[2]; S. aureus, clinical sample of r85-r92, Ct Control Avg 24.32
  Ct: 15.037

## Ampicillin/Sulbactam
[1]; E. coli isolate 1 (Table 3)
  Traditional Culture Result: Resistant
[1]; E. coli isolate 2 (Table 3)
  Traditional Culture Result: Resistant
[1]; E. coli isolate 3 (Table 3)
  Traditional Culture Result: Resistant
[1]; E. coli isolate JJ1887
  Traditional Culture Result: Resistant
[2]; [3]
  Molecular Antibiotic Susceptibility Result: Resistant
[2]; [4]
  Ct: 17.123
[2]; [5]
  Molecular Antibiotic Susceptibility Result: Sensitive (Antimicrobial wells with pathogen load detected below the control wells (typically >2 cycle thresholds later) may be reported as Sensitive)
[2]; [6]
  Ct: 29.662
[2]; [7]
  Molecular Antibiotic Susceptibility Result: Sensitive (Antimicrobial wells with pathogen load detected below the control wells (typically >2 cycle thresholds later) may be reported as Sensitive)
[2]; [8]
  Ct: 31.018
[2]; [9]
  Molecular Antibiotic Susceptibility Result: Resistant
[2]; [10]
  Ct: 23.602
[2]; [11]
  Molecular Antibiotic Susceptibility Result: Sensitive (Antimicrobial wells with pathogen load detected below the control wells (typically >2 cycle thresholds later) may be reported as Sensitive)
[2]; [12]
  Ct: 37.093
[2]; [13]
  Molecular Antibiotic Susceptibility Result: Sensitive (Antimicrobial wells with pathogen load detected below the control wells (typically >2 cycle thresholds later) may be reported as Sensitive)
[2]; [14]
  Ct: Undet
[2]; [15]
  Molecular Antibiotic Susceptibility Result: Sensitive (Antimicrobial wells with pathogen load detected below the control wells (typically >2 cycle thresholds later) may be reported as Sensitive)
[2]; [16]
  Ct: 33.809
[2]; [17]
  Molecular Antibiotic Susceptibility Result: Sensitive (Antimicrobial wells with pathogen load detected below the control wells (typically >2 cycle thresholds later) may be reported as Sensitive)
[2]; [18]
  Ct: 36.062

## C[C@@H](O)[C@H]1C(=O)N2C(C(=O)O)=C(S[C@@H]3CN[C@H](C(=O)N(C)C)C3)[C@H](C)[C@H]12 [Meropenem]
[1]; E. coli isolate 1 (Table 3)
  Traditional Culture Result: Sensitive
[1]; E. coli isolate 2 (Table 3)
  Traditional Culture Result: Sensitive
[1]; E. coli isolate 3 (Table 3)
  Traditional Culture Result: Sensitive
[1]; E. coli isolate JJ1887
  Traditional Culture Result: Sensitive
[2]; [3]
  Molecular Antibiotic Susceptibility Result: Sensitive (Antimicrobial wells with pathogen load detected below the control wells (typically >2 cycle thresholds later) may be reported as Sensitive)
[2]; [4]
  Ct: 27.07
[2]; [5]
  Molecular Antibiotic Susceptibility Result: Sensitive (Antimicrobial wells with pathogen load detected below the control wells (typically >2 cycle thresholds later) may be reported as Sensitive)
[2]; [6]
  Ct: 30.723
[2]; [7]
  Molecular Antibiotic Susceptibility Result: Sensitive (Antimicrobial wells with pathogen load detected below the control wells (typically >2 cycle thresholds later) may be reported as Sensitive)
[2]; [8]
  Ct: 33.144
[2]; [9]
  Molecular Antibiotic Susceptibility Result: Sensitive (Antimicrobial wells with pathogen load detected below the control wells (typically >2 cycle thresholds later) may be reported as Sensitive)
[2]; [10]
  Ct: 31.816
[2]; [11]
  Molecular Antibiotic Susceptibility Result: Sensitive (Antimicrobial wells with pathogen load detected below the control wells (typically >2 cycle thresholds later) may be reported as Sensitive)
[2]; [12]
  Ct: 37.898
[2]; [13]
  Molecular Antibiotic Susceptibility Result: Sensitive (Antimicrobial wells with pathogen load detected below the control wells (typically >2 cycle thresholds later) may be reported as Sensitive)
[2]; [14]
  Ct: 36.672
[2]; [15]
  Molecular Antibiotic Susceptibility Result: Sensitive (Antimicrobial wells with pathogen load detected below the control wells (typically >2 cycle thresholds later) may be reported as Sensitive)
[2]; [16]
  Ct: 34.223
[2]; [17]
  Molecular Antibiotic Susceptibility Result: Sensitive (Antimicrobial wells with pathogen load detected below the control wells (typically >2 cycle thresholds later) may be reported as Sensitive)
[2]; [18]
  Ct: 35.503
